Consider four compounds from patent publication US20190016689A1, “NOVEL FLUORINATED QUINAZOLINE DERIVATIVES AS EGFR INHIBITORS” (TRILLIUM THERAPEUTICS INC., priority 2016, published 2019).

Data set [1] is described as follows: Plasma stability. The class given is in vitro ADME. The procedure:
Thaw the frozen plasma immediately in a 37° C. water bath. Centrifuge plasma at 3,220 g for 10 minutes at room temperature to remove clots and collect supernatant into a fresh tube. Check and record the pH of the plasma. (Note: a. Only use plasma that has been thawed no more than twice since arrival. b. Only use plasma within the range of pH 7 to pH 8.)
The working solutions of test compounds and control compound are prepared in 50% water/50% acetonitrile and DMSO at the concentration of 100 μM, respectively. Propantheline is used as positive control for human and mouse plasma stability assay and mevinolin is used as the positive control for dog and rat plasma stability assay.
Add 5 μL of 100 μM working solution to 495 μL of pre-incubated human, monkey, dog, rat or mouse plasma to reach a final concentration of 1 μM. The final concentration of organic solvents is 0.5%. The assay is performed in duplicate. Incubate the reaction samples at 37° C. water bath with shaking at approximately 60 rpm. Take aliquots of 50 μL from the reaction samples at 0, 15, 30, 45, 60 and 120 minutes. Stop the reaction by adding 300 μL of room temperature quench solution (Acetonitrile containing internal standards (IS, 200 nM Labetalol, 100 nM Alprazolam and 2 μM Ketoprofen)). Vortex for 5 minutes. Centrifuge samples in plate at 3,220 g for 30 minutes at room temperature to precipitate protein. Transfer 100 μL of the supernatant to a new plate. The supernatant may be diluted with 100 μL or 200 μL water according to the LC/MS signal response and peak shape. Mix well and analyze samples using LC/MS/MS.

Data set [2] can be described thus: Chemical stability in simulated intestinal fluid. The class given is physicochemical. The conditions noted are these: 37° C. The protocol: For SIF: Dissolve 6.8 g of KH2PO4 into about 500 mL ultrapure water and adjust the solution to a pH 6.8 with 0.1 M NaOH. Dissolve 10 g of trypsin into ultrapure water. Then the two solutions are mixed well and diluted with ultrapure water to 1000 mL.
The working solutions of test compound and control compound chlorambucil are prepared in DMSO at the concentration of 500 μM.
Place 2 μL of working solution of each sample in order into their proper 96-well rack. Add 198 μL of pre-incubated PBS pH 7.4 or simulated intestinal fluid into each vial of the cap-less Sample plate to achieve a final concentration of […]. The assay is performed in duplicate. Seal using a molded PTFE/Silicone plug. Then transfer the Sample plate to the Eppendorf Thermomixer Comfort plate shaker and shake at 37° C. at 1100 RPM. Take one of the glass vials at designated time points including 0, 30, 60, 120 and 240 min. For each time point, the initiation of the reaction is staggered so all time points are terminated with 1000 μL of cold quench solution (acetonitrile containing internal standards (IS, 200 nM Labetalol, 100 nM Alprazolam and 2 μM Ketoprofen) at the same time. Vortex for 1 minute. Centrifuge the samples in plate at 3,220 g for 5 minutes at 4° C. Transfer 100 μL of the supernatant to a new plate. The supernatant may be diluted with 100 μL or 200 μL water according to the LC/MS signal response and peak shape. Mix well and analyze samples using LC/MS/MS.

Data set [3] concerns the target EGFR (G719C) (Homo sapiens, UniProt P00533, G719C). Kind of data set: Kinase assays, selectivity panel (qPCR). The conditions noted are these: read-out: % Control @ 300 nM.
For data set [4], the system named is NCI-H226. Kind of data set: NCI screening panel (SRB). The format is cell-based. The conditions noted are these: Homo sapiens, NCI-H226 (NSCLC), 48 h; for CC50: read-out: LC50 (the source's name).
Data set [5] has as its system UACC-62. Kind of data set: NCI screening panel (SRB). The class given is cell-based. The conditions noted are these: Homo sapiens; UACC-62 (Melanoma), 48 h.
Data set [6] deals with U251. Briefly: NCI screening panel (SRB). Conditions: Homo sapiens, U-251, U251 (CNS), 48 h; for CC50: read-out: LC50 (the source's name). The class given is cell-based.
The target in data set [7] is ERBB2 (Homo sapiens, UniProt P04626). Kind of data set: Kinase assays, selectivity panel (qPCR). The conditions noted are these: read-out: % Control @ 300 nM. A general note: Quantitative PCR measures a nucleic acid by following its amplification.
Data set [8] addresses EGFR (G719S) (Homo sapiens, UniProt P00533, G719S). Kind of data set: Kinase assays, selectivity panel (qPCR). The conditions noted are these: read-out: % Control @ 300 nM.
Data set [9] has as its system UACC-257. Kind of data set: NCI screening panel (SRB). The class given is cell-based. The conditions noted are these: Homo sapiens, UACC-257 (Melanoma), 48 h; for CC50: read-out: LC50 (the source's name).
The test system of data set [10] is MOLT-4. Briefly: NCI screening panel (SRB). The conditions noted are these: Homo sapiens, MOLT-4 (Leukemia), 48 h; for CC50: read-out: LC50 (the source's name). The format is cell-based.
Data set [11] has as its system NCI/ADR-RES. Briefly: NCI screening panel (SRB). The conditions noted are these: Homo sapiens, NCI/ADR-RES (Ovarian), 48 h; for CC50: read-out: LC50 (the source's name). The format is cell-based.
The subject of data set [12] is MALME3-M. Briefly: NCI screening panel (SRB). The format is cell-based. Conditions: Homo sapiens, Malme-3M, MALME3-M (Melanoma), 48 h; for CC50: read-out: LC50 (the source's name).
Data set [13] has as its target BLK (B-lymphoid TK) (Homo sapiens, UniProt P51451). Kind of data set: Kinase assays, selectivity panel (qPCR). Conditions: read-out: % Control @ 300 nM.

Chain of EGFR (G719S) (P00533 25-1210 G719S): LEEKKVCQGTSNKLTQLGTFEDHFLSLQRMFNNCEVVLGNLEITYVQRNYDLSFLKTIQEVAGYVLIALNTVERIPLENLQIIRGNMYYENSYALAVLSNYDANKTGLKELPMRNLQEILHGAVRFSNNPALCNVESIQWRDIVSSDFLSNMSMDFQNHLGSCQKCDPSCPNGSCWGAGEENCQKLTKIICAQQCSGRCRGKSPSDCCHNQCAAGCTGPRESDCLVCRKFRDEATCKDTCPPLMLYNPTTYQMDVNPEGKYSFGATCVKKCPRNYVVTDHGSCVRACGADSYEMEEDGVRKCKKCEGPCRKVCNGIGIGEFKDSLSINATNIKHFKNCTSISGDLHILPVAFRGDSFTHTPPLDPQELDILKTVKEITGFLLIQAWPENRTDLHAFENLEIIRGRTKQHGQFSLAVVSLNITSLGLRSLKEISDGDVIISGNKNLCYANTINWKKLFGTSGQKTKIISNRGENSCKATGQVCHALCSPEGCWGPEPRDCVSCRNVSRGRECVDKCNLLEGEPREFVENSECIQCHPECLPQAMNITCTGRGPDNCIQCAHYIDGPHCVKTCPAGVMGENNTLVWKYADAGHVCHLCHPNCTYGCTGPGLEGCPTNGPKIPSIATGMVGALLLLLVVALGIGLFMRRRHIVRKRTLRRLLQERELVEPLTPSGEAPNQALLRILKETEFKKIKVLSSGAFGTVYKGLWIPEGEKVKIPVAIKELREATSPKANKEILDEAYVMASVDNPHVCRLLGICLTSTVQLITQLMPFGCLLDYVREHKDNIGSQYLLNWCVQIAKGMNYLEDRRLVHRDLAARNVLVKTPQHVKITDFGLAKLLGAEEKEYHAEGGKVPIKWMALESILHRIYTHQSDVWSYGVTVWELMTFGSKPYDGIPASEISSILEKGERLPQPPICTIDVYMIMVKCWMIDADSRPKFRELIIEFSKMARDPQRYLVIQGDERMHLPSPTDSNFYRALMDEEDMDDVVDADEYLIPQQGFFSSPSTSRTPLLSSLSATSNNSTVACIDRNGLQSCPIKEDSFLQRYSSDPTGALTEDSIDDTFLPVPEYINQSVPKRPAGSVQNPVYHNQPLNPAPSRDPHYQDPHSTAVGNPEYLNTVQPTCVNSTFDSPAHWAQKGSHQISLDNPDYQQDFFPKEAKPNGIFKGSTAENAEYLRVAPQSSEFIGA
Chain of ERBB2 (P04626 23-1255): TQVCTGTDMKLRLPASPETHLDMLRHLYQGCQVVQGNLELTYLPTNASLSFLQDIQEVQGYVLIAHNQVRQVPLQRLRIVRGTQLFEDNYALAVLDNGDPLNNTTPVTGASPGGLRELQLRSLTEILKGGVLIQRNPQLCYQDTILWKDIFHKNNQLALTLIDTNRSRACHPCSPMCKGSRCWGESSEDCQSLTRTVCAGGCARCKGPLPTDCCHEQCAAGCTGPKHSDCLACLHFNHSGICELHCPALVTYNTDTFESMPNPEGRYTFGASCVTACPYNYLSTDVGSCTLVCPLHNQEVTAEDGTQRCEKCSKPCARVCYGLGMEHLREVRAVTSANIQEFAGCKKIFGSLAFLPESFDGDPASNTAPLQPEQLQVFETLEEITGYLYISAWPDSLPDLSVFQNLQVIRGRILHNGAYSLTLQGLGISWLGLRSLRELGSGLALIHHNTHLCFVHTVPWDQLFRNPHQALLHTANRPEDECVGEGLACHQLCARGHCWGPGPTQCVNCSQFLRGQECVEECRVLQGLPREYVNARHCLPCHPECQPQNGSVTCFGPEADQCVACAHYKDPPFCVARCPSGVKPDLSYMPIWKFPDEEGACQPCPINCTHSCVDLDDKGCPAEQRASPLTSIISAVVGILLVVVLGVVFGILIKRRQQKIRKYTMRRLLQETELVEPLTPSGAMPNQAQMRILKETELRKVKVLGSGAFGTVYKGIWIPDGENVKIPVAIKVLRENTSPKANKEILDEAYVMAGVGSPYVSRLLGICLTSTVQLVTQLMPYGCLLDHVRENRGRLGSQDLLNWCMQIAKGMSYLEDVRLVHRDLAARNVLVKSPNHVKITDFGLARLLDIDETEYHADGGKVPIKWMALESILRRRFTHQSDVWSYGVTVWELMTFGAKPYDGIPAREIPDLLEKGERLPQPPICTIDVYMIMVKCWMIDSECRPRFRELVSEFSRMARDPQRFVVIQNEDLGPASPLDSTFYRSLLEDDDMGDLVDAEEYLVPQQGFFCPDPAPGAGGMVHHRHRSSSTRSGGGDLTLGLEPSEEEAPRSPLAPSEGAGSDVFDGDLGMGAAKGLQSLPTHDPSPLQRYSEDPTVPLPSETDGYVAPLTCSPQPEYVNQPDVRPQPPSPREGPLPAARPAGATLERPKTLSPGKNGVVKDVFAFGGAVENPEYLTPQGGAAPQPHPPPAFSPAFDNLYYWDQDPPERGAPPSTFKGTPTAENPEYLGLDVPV
Chain of BLK (B-lymphoid TK) (P51451 whole entry): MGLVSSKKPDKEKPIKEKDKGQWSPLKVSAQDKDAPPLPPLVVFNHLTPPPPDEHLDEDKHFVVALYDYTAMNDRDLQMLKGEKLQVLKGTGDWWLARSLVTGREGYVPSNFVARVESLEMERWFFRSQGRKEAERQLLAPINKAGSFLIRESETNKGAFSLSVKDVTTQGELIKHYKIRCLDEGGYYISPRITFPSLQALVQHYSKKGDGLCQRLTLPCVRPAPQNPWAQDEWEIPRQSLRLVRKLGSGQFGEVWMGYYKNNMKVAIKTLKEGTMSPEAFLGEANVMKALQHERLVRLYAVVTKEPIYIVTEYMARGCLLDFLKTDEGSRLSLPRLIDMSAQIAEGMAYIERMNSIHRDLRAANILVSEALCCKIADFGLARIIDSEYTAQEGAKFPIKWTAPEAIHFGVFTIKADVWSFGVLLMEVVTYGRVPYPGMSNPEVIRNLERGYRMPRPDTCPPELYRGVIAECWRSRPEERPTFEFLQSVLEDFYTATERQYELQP
Chain of EGFR (G719C) (P00533 25-1210 G719C): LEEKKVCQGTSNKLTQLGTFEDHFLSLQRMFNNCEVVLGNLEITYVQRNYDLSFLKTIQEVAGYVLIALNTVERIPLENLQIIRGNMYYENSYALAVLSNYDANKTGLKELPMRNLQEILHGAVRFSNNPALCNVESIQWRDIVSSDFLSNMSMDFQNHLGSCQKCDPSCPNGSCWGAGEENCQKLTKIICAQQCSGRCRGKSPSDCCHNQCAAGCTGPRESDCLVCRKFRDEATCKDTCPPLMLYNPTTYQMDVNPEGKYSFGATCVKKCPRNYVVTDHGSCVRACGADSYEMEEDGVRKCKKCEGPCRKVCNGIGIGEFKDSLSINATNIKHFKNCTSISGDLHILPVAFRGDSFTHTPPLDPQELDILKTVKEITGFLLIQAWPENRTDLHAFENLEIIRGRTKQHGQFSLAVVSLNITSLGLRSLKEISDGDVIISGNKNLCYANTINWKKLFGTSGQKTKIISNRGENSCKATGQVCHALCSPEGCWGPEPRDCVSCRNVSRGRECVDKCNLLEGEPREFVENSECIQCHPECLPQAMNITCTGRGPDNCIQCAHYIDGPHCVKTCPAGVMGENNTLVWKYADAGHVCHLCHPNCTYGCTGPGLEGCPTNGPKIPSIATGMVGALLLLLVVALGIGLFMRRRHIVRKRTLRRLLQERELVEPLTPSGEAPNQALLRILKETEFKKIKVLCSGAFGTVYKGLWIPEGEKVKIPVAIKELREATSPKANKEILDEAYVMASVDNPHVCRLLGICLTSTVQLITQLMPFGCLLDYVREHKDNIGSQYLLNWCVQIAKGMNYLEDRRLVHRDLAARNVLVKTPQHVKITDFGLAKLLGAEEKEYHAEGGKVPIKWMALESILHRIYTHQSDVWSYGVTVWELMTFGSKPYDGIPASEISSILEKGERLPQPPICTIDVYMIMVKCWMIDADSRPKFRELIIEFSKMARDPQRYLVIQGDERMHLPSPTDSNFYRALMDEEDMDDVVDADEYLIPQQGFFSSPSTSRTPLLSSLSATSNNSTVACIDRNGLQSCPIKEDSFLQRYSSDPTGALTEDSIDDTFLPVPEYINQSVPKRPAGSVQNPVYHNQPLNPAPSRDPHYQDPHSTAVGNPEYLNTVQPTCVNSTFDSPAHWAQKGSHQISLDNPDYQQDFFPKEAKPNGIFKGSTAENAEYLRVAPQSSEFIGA

As for `CN(C)C/C=C/C(=O)Nc1cc2c(Nc3ccc(F)c(Cl)c3)ncnc2cc1O[C@H]1CCOC1` [Afatinib, reference compound], in data set [1] (60 min), the “Dog Remaining Percentage (%)” value was determined as 111.61%, the “Human Remaining Percentage (%)” value was found to be 94.78%, the “Monkey Remaining Percentage (%)” value is reported as 102.98% and the “Mouse Remaining Percentage (%)” value amounted to 101.81%. Besides, the “Rat Remaining Percentage (%)” value in data set [1] (60 min) was 101.43%. Moreover, in data set [1] (120 min), the “Dog Remaining Percentage (%)” value is listed as 102.15%, the “Human Remaining Percentage (%)” value is 98.62%, the “Monkey Remaining Percentage (%)” value stood at 97.24% and the “Mouse Remaining Percentage (%)” value was determined as 106.59%. Further, the “Rat Remaining Percentage (%)” value in data set [1] (120 min) was 95.31%. Besides, the “Remaining Percentage (%) in Simulated Intestinal Fluid” value in data set [2] (120 min) was 104.51%. The “Remaining Percentage (%) in Simulated Intestinal Fluid” value in [2] (240 min) was 104.31%.
Turning to `CN(C)C/C=C/C(=O)Nc1cc2c(Nc3cccc(Cl)c3F)ncnc2cc1OCCOC(F)F.O=C(O)/C=C\C(=O)O` [Example I-5-MA, (E)-N-[4-(3-chloro-2-fluoro-anilino)-7-[2-(difluoromethoxy)ethoxy]quinazolin-6-yl]-4-(dimethylamino)but-2-enamide dimaleic acid salt], in [1] (60 min), the “Dog Remaining Percentage (%)” value is on record as 104.57%, the “Human Remaining Percentage (%)” value came to 101.95%, the “Monkey Remaining Percentage (%)” value is 85.79% and the “Mouse Remaining Percentage (%)” value worked out at 95.45%. In addition, the “Rat Remaining Percentage (%)” value in [1] (60 min) came out at 99.28%. Moreover, in data set [1] (120 min), the “Dog Remaining Percentage (%)” value came to 102.13%, the “Human Remaining Percentage (%)” value was found to be 95.45%, the “Monkey Remaining Percentage (%)” value is 83.32% and the “Mouse Remaining Percentage (%)” value came to 105.25%. The “Rat Remaining Percentage (%)” value in data set [1] (120 min) was determined as 95.14%. Also, in [2] (120 min), the “Remaining Percentage (%) in Simulated Intestinal Fluid” value is on record as 97.51%. For the same compound, the “Remaining Percentage (%) in Simulated Intestinal Fluid” value in [2] (240 min) was 91.51%.
The term GI50 denotes the concentration giving 50% growth inhibition. A word on the LC50: it is the concentration that kills 50% of the test population. For the compound `CN(C)C/C=C/C(=O)Nc1cc2c(Nc3ccc(F)c(Cl)c3F)ncnc2cc1OCCOC(F)F.O=C(O)/C=C\C(=O)O.O=C(O)/C=C\C(=O)O` [Example I-9-MA, (E)-N-[4-(3-chloro-2,4-difluoro-anilino)-7-[2-(difluoromethoxy)ethoxy]quinazolin-6-yl]-4-(dimethylamino)but-2-enamide di-maleic acid salt], the remaining activity at 0.3 µM in data set [3] amounted to 1.1%; in [7] it was 0%; in [8], 0.15%; in data set [13] it was 0.5%. Besides, the GI50 was 1.71 µM in [4]; 1.49 µM in data set [5]; 2.17 µM in [6]; 2.18 µM in data set [9]; 0.849 µM in data set [10]; 0.839 µM in data set [11]. Besides, it took 1.42 µM to inhibit growth in [12] by half (GI50). Besides, the CC50 in data set [4] is 9.7 µM; in [6], 29.6 µM; in data set [9] it was 34 µM; in data set [10] it was 47.5 µM; in data set [11], greater than 100 µM; in data set [12] it was 6.97 µM. In addition, in data set [5], the LC50 worked out at 9.95 µM.
Regarding `O=C(/C=C/CN1CCCCC1)Nc1cc2c(Nc3ccc(F)c(Cl)c3F)ncnc2cc1OCCOC(F)F.O=C(O)/C=C\C(=O)O.O=C(O)/C=C\C(=O)O` [Example I-10-MA, (E)-N-[4-(3-chloro-2,4-difluoro-anilino)-7-[2-(difluoromethoxy)ethoxy]quinazolin-6-yl]-4-(1-piperidyl)but-2-enamide di-maleic acid salt], the remaining activity at 0.3 µM stood at 0% in data set [3], 0.05% in data set [7], 0% in [8] and 0.3% in data set [13]. The GI50 came out at 1.77 µM in [4]; 1.79 µM in data set [5]; 2.17 µM in data set [6]; 1.74 µM in data set [9]; 1.12 µM in data set [10]; 1 µM in data set [11]. Moreover, the GI50 in data set [12] worked out at 1.45 µM. The CC50 in [4] is greater than 100 µM; in data set [6] it was 40.7 µM; in data set [9], 24.1 µM; in [10], 98.4 µM; in [11] it was greater than 100 µM; in data set [12], 7.44 µM. In data set [5], this compound came in with an LC50 of 20.5 µM.
